According to the NIST ThermoML archive (doi:10.1021/acs.jced.7b00704):

Assay: refractive index (Na D-line) (dimensionless); xn = mol fraction of the nth substance listed
Settings: 293.15 K, 93 kPa, Liquid, Standard Abbe refractometry

COC(=O)OC [dimethyl carbonate] + COC(C)=O
Settings	refractive index
x2 = 0	1.3688

COC(=O)OC [dimethyl carbonate] + CCCOC(C)=O
Settings	refractive index
x2 = 0	1.3688

CCCCOC(C)=O [butyl ethanoate] + COC(=O)OC
Settings	refractive index
x1 = 0.0941	1.3721
x1 = 0.1143	1.3728
x1 = 0.1628	1.3743
x1 = 0.2495	1.377
x1 = 0.3203	1.379
x1 = 0.4375	1.3821
x1 = 0.5357	1.3846
x1 = 0.6438	1.3871
x1 = 0.7325	1.389
x1 = 0.7418	1.3893
x1 = 0.8819	1.3921
x1 = 0.9073	1.3925
x1 = 1	1.3943

COC(=O)OC [dimethyl carbonate] + CC(=O)OCCC(C)C
Settings	refractive index
x2 = 0	1.3688

CCCOC(C)=O [propyl ethanoate] + COC(=O)OC
Settings	refractive index
x1 = 0.0846	1.3704
x1 = 0.1341	1.3714
x1 = 0.1705	1.372
x1 = 0.223	1.3731
x1 = 0.2896	1.3741
x1 = 0.3877	1.3757
x1 = 0.4374	1.3765
x1 = 0.4989	1.3775
x1 = 0.562	1.3784
x1 = 0.669	1.38
x1 = 0.7756	1.3815
x1 = 0.891	1.383
x1 = 0.9528	1.3838
x1 = 1	1.3843

CCOC(C)=O [ethyl acetate] + COC(=O)OC
Settings	refractive index
x1 = 1	1.3724

CC(=O)OC(C)C [1-methylethyl ethanoate] + COC(=O)OC
Settings	refractive index
x1 = 0.0423	1.3693
x1 = 0.0899	1.3699
x1 = 0.183	1.371
x1 = 0.2918	1.3721
x1 = 0.4235	1.3733
x1 = 0.5026	1.374
x1 = 0.5726	1.3746
x1 = 0.6814	1.3754
x1 = 0.7285	1.3758
x1 = 0.7616	1.3759
x1 = 0.7915	1.3761
x1 = 0.8849	1.3767
x1 = 0.9449	1.3771
x1 = 1	1.3774

CC(=O)OCCC(C)C [3-methylbutyl ethanoate] + COC(=O)OC
Settings	refractive index
x1 = 0.0369	1.3706
x1 = 0.0721	1.3724
x1 = 0.2004	1.378
x1 = 0.2231	1.3788
x1 = 0.3091	1.3821
x1 = 0.4027	1.3854
x1 = 0.4943	1.3883
x1 = 0.6064	1.3915
x1 = 0.7185	1.3945
x1 = 0.8312	1.3972
x1 = 0.9243	1.3992
x1 = 1	1.4007

COC(=O)OC [dimethyl carbonate] + CCCCOC(C)=O
Settings	refractive index
x2 = 0	1.3688

COC(=O)OC [dimethyl carbonate] + CC(=O)OC(C)C
Settings	refractive index
x2 = 0	1.3688

COC(=O)OC [dimethyl carbonate] + CCOC(C)=O
Settings	refractive index
x2 = 0	1.3688
x2 = 0.0861	1.3693
x2 = 0.1154	1.3694
x2 = 0.2095	1.3698
x2 = 0.3017	1.3702
x2 = 0.3685	1.3704
x2 = 0.3952	1.3705
x2 = 0.4303	1.3707
x2 = 0.5094	1.371
x2 = 0.5642	1.3712
x2 = 0.6047	1.3713
x2 = 0.6964	1.3716
x2 = 0.8026	1.3719
x2 = 0.8912	1.3722
x2 = 0.9375	1.3723
